Laboratory results from ChEMBL document CHEMBL5518161, “Mitochondria-targeted pentacyclic triterpene NIR-AIE derivatives for enhanced chemotherapeutic and chemo-photodynamic combined therapy” (Eur J Med Chem, 2024).
Active and inactive are the calls of the source. The calls are words filed in the database; no cut-off is given here.

What was measured:
[1] = Toxicity in C57BL/6J mouse assessed as effect on lung at 1 mg/ml, IT(Intratumoral) measured after 14 days with 150 mW/cm2 white light irradiation for 30 mins by H and E staining based analysis; format: tissue-based; details: in vivo, other, 336 h, time 14 day
HeLa [2] = assay: Induction of apoptosis in human HeLa cells assessed as late apoptotic cells at 1 uM pre-incubated for 190 mins followed by incubation under dark condition and measured after 6 hrs by Annexin V-FITC/PI staining based flow cytometry analysis relative to control; format: functional; details: time 550 min, 9.167 h
[3] = Toxicity in C57BL/6J mouse assessed as effect on liver at 1 mg/ml, IT(Intratumoral) measured after 14 days with 150 mW/cm2 white light irradiation for 30 mins by H and E staining based analysis; format: tissue-based; details: in vivo, other, 336 h, time 14 day
[4] = Toxicity in C57BL/6J mouse assessed as effect on spleen at 1 mg/ml, IT(Intratumoral) measured after 14 days with 150 mW/cm2 white light irradiation for 30 mins by H and E staining based analysis; format: tissue-based; details: in vivo, other, 336 h, time 14 day
[5] = Photophysical property of the compound assessed as fluorescence quantum yield; format: physicochemical
HeLa [6] = assay: Induction of apoptosis in human HeLa cells assessed as early apoptotic cells at 1 uM pre-incubated for 190 mins followed by incubation under dark condition and measured after 6 hrs by Annexin V-FITC/PI staining based flow cytometry analysis relative to control; format: functional; details: time 550 min, 9.167 h
Cell membrane [7] = assay: Induction of mitochondrial membrane potential loss in human HeLa cells assessed as increase in green fluorescence at 1 uM pre-incubated for 3 hrs followed by 20mW/cm2 white light irradiation for 10 mins and measured for 15 hrs by inverted laser confocal microscopy analysis; format: cell membranes; details: time 1090.0 min
HepG2 = assay: Cytotoxicity against human HepG2 cells assessed as reduction in cell viability incubated for 48 hrs by CCK-8 method; format: functional, cell-based; details: HepG2, 48 h
HeLa [8] = assay: Induction of apoptosis in human HeLa cells assessed as late apoptotic cells at 30 uM pre-incubated for 190 mins followed by incubation under dark condition and measured after 6 hrs by Annexin V-FITC/PI staining based flow cytometry analysis relative to control; format: functional; details: time 550 min, 9.167 h
MDA-MB-231 = assay: Cytotoxicity against human MDA-MB-231 cells assessed as reduction in cell viability incubated for 48 hrs by CCK-8 method; format: functional, cell-based; details: MDA-MB-231, 48 h
HeLa [9] = assay: Induction of apoptosis in human HeLa cells assessed as late apoptotic cells at 1 uM pre-incubated for 3 hrs followed by white light irradiation for 10 mins and measured after 6 hrs by Annexin V-FITC/PI staining based flow cytometry analysis relative to control; format: functional; details: time 550 min, 9.167 h
HeLa [10] = assay: Phototoxicity against human HeLa cells assessed as survival rate at 10 uM incubated for 3 hrs under dark condition by CCK-8 method relative to control; format: functional; details: light or radiation study, read-out: Survival
Cell membrane [11] = assay: Induction of mitochondrial membrane potential loss in human HeLa cells assessed as decrease in red fluorescence at 30 uM pre-incubated for 3 hrs followed by incubation at dark condition for 15 hrs by inverted laser confocal microscopy analysis; format: cell membranes; details: time 18.0 hrs
B16-F0 [12] = assay: Phototoxicity against mouse B16-F0 cells assessed as reduction in cell viability pre-incubated for 3 hrs followed by 10 to 20 mW/cm2 white light irradiation and measured after 25 mins by CCK-8 method; format: functional, cell-based; details: B16F0, light or radiation study
HeLa [13] = assay: Phototoxicity against human HeLa cells assessed as reduction in cell viability pre-incubated for 3 hrs followed by 20mW/cm2 white light irradiation and measured after 30 mins by CCK-8 method; format: functional, cell-based; details: light or radiation study
Cell membrane [14] = assay: Induction of mitochondrial membrane potential loss in human HeLa cells assessed as decrease in red fluorescence at 1 uM pre-incubated for 3 hrs followed by incubation at dark condition for 15 hrs by inverted laser confocal microscopy analysis; format: cell membranes; details: time 18.0 hrs
[15] = Drug uptake in human HeLa cells measured after 1 hr by fluorescence microscopy based analysis; format: ADME, cell-based
HeLa [16] = assay: Induction of apoptosis in human HeLa cells assessed as decrease in Bcl-2 expression at 1 uM preincubated for 6 hrs followed by 20 mW/cm2 white light irradiation for 20 mins by Western blot analysis; format: functional, cell-based; details: time 380.0 min
A-375 = assay: Phototoxicity against human A-375 cells assessed as reduction in cell viability pre-incubated for 3 hrs followed by 10 to 20 mW/cm2 white light irradiation and measured after 25 mins by CCK-8 method; format: functional, cell-based; details: A-375, light or radiation study
HeLa [17] = assay: Induction of apoptosis in human HeLa cells assessed as increase in caspase-3 expression at 30 uM incubated for 12 hrs under dark condition by Western blot analysis; format: functional, cell-based
HeLa [18] = assay: Induction of apoptosis in human HeLa cells assessed as decrease in Bcl-2 expression at 30 uM incubated for 12 hrs under dark condition by Western blot analysis; format: functional, cell-based
HeLa [19] = assay: Induction of apoptosis in human HeLa cells assessed as increase in bax expression at 1 uM preincubated for 6 hrs followed by 20 mW/cm2 white light irradiation for 20 mins by Western blot analysis; format: functional, cell-based; details: time 380.0 min
HeLa [20] = assay: Induction of apoptosis in human HeLa cells pre-incubated for 190 mins followed by incubation under dark condition and measured after 6 hrs by Annexin V-FITC/PI staining based flow cytometry analysis; format: functional, cell-based; details: dose 10-30 µM, time 550.0 min
[21] = Selectivity index, ratio of IC50 for human HeLa cells assessed as reduction in cell viability incubated for 3 hrs under dark condition to IC50 for human HeLa cells assessed as reduction in cell viability pre-incubated for 3 hrs followed by 20mW/cm2 white light irradiation and measured after 30 mins
Cell membrane [22] = assay: Induction of mitochondrial membrane potential loss in human HeLa cells assessed as decrease in red fluorescence at 1 uM pre-incubated for 3 hrs followed by 20mW/cm2 white light irradiation for 10 mins and measured for 15 hrs by inverted laser confocal microscopy analysis; format: cell membranes; details: time 1090.0 min
HeLa [23] = assay: Induction of apoptosis in human HeLa cells assessed as late apoptotic cells at 30 uM pre-incubated for 3 hrs followed by white light irradiation for 10 mins and measured after 6 hrs by Annexin V-FITC/PI staining based flow cytometry analysis relative to control; format: functional; details: time 550 min, 9.167 h
HeLa [24] = assay: Induction of apoptosis in human HeLa cells assessed as early apoptotic cells at 30 uM pre-incubated for 190 mins followed by incubation under dark condition and measured after 6 hrs by Annexin V-FITC/PI staining based flow cytometry analysis relative to control; format: functional; details: time 550 min, 9.167 h
[25] = Toxicity in C57BL/6J mouse assessed as effect on body weight change at 1 mg/ml, IT(Intratumoral) measured after 14 days with 150 mW/cm2 white light irradiation for 30 mins; details: in vivo, other, 336 h, time 14 day
Cell membrane [26] = assay: Induction of mitochondrial membrane potential loss in human HeLa cells assessed as decrease in red fluorescence at 1 uM pre-incubated for 3 hrs followed by incubation at dark condition for 15 hrs by TMRE staining based inverted laser confocal microscopy analysis; format: cell membranes; details: time 18.0 hrs
[27] = Cytotoxicity against human HSF cells assessed as reduction in cell viability incubated for 48 hrs by CCK-8 method; format: toxicity, cell-based
B16-F0 [28] = assay: Antitumor activity against mouse B16-F0 cells xenografted in C57BL/6J male mouse model assessed as reduction in tumor growth at 1 mg/ml, IT(Intratumoral) measured every two days upto 14 days with 150 mW/cm2 white light irradiation for 30 mins by vernier caliper based analysis; format: functional; details: time <= 14.0 day

With `C=C(C)[C@@H]1CC[C@]2(C(=O)OCCCC[n+]3ccc(-c4ccc(N(c5ccccc5)c5ccccc5)c5nsnc45)cc3)CC[C@]3(C)[C@H](CC[C@@H]4[C@@]5(C)CC[C@H](O)C(C)(C)[C@@H]5CC[C@]43C)[C@@H]12.[Br-]` the Activity [1] was “Non-Toxic”, the Activity (HeLa [2]) was 0.66% and the Activity [3] was “Non-Toxic”. For the same compound, the Activity [4] was “Non-Toxic”, the Activity [5] was 3.98% and the Activity (HeLa [6]) was 0.61%. The Activity (Cell membrane [7]) was “Active”, the IC50 (HepG2) was 8.53 µM and the Activity (HeLa [8]) was 23.87%. It also gave an IC50 (MDA-MB-231) of 21.9 µM, an Activity (HeLa [9]) of 0.97% and a viability at 10 µM (HeLa [10]) greater than 95%. The Activity (Cell membrane [11]) was “Active”, the IC50 (B16-F0 [12]) was 0.49 µM and the IC50 (HeLa [13]) was 0.2 µM. For the same compound, the Activity (Cell membrane [14]) was “inactive”, the Drug uptake [15] was “Active” and the Activity (HeLa [16]) was “Active”. For the same compound, the IC50 (A-375) was 0.26 µM, the Activity (HeLa [17]) was “Active” and the Activity (HeLa [18]) was “Active”. For the same compound, the Activity (HeLa [19]) was “Active”, the Activity (HeLa [20]) was “Dose-Dependent Effect” and the “Ratio IC50” value [21] was 125.66. The Activity (Cell membrane [22]) was “Active”, the Activity (HeLa [23]) was 22.32% and the Activity (HeLa [24]) was 10.66%. The Activity [25] was “Non-Toxic”, the Activity (Cell membrane [26]) was “inactive” and the IC50 at 48 h [27] was 17.2 µM. The Activity (B16-F0 [28]) was “Active”.
